Experimental data published in US6476019B1, “Spirocyclic ligands for sigma receptors, and libraries and methods of use thereof” (Sepracor Inc., priority 1999, dated 2002).
In brackets after ≈: the same amount, converted by molar mass. Read-outs that look alike come from different tables or passages of the source.

Experiments:
[1] = target: T1, CYP2C19 (Homo sapiens, UniProt P33261); assay: In Vitro Metabolism (isozymes of P450) CYP2C19
[2] = Permeability; type: in vitro ADME; conditions: not told; read-out: Permeability PupperX10^6 cm/s
[3] = Log D7.5
[4] = target: T2, sigma-1 receptor (guinea pig brain) (Cavia porcellus, UniProt Q60492); assay: Antagonism of haloperidol binding to guinea pig sigma-1 receptors; conditions: sigma-1, guinea pig brain; for % Inhibition: test concentration not given
T2 construct: from tissue; host or cells: guinea pig brain

[5] = target: T3, CYP2C9 (Homo sapiens, UniProt P11712); assay: In Vitro Metabolism (isozymes of P450) CYP2C9
[6] = Metabolic Stability
[7] = system: Membrane Integrity; assay: Safety Assessment: Membrane Integrity
[8] = system: RedOx State; assay: Safety Assessment: RedOx State
[9] = system: DNA Synthesis; assay: Safety Assessment: DNA Synthesis
[10] = target: T4, CYP1A2 (Homo sapiens, UniProt P05177)
T4 sequence (P05177 1-516): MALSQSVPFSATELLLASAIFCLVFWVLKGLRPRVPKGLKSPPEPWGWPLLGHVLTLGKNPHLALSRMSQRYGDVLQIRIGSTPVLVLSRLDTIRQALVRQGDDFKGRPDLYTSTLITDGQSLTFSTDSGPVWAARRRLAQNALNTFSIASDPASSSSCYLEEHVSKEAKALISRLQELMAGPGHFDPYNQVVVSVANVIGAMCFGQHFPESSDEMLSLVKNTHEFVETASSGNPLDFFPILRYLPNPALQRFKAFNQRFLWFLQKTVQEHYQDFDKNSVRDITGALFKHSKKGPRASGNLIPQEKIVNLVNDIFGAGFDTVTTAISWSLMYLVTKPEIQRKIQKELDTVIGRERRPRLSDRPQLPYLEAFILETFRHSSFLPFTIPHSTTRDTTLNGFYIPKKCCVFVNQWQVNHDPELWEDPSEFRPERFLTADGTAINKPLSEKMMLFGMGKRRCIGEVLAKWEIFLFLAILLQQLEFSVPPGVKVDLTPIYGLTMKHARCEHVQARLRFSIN

[11] = system: Cell Viability; assay: Safety Assessment: Cell Viability
[12] = system: GSH Level; assay: Safety Assessment: GSH Level
[13] = target: T5, CYP3A4 (Homo sapiens, UniProt P08684); assay: In Vitro Metabolism (isozymes of P450) CYP3A4
[14] = Protein Binding
[15] = Solubility
[16] = target: T6, CYP2D6 (Homo sapiens, UniProt P10635); assay: In Vitro Metabolism (isozymes of P450) CYP2D6
[17] = system: Caspase-3; assay: Safety Assessment: Caspase-3 Induction
[18] = system: Protein Synthesis; assay: Safety Assessment: Protein Synthesis
[19] = target: human serotonin 5-HT2A (Homo sapiens, UniProt P28223); assay: Behavioral receptor assays: 5-HT2A; type: binding; conditions: read-out: Receptors (IC50) 5-HT2A
Method: (§1) Various compounds of the present invention (19, 31, and 32) were evaluated in a group of assays based on mammalian cellular receptors associated with behavior. The group consisted of assays base on human dopamine D1, D2L, D3, D4.2, D4.4, D4.7, and D5 receptors, and the transporter; human serotonin 5-HT1A, 5-HT1B, 5-HT1D, 5-HT2A, 5-HT2B, 5-HT2C, 5-HT3, 5-HT5A, 5-HT6, and 5-HT7 receptors, and the human serotonin transporter; guinea pig 5-HT4 and sigma-1 receptors; rat sigma-2 and muscarinic receptors; and human NK1-3 receptors. The following table presents a subset of the results of these assays.

[20] = target: sigma-1 receptors (Cavia porcellus, UniProt Q60492); assay: Behavioral receptor assays: sigma-1; type: binding; conditions: guinea pig
Method: as §1

[21] = system: Male Wistar rats; assay: MK-801-Induced Psychosis Model; type: in vivo, rat; conditions: rat, 0.5, 1.0 and 5.0 mg/kg i.p.; MK-801 0.3 mg/kg i.p.
Text: The non-competitive NMDA receptor antagonist MK-801 induces stereotypies and hyperactivity in rodents (1) by interacting with the NMDA receptor-associated ion channel. Phencyclidine, which also interferes with the NMDA receptor, produces psychotic effects in humans similar in many respects to schizophrenia. […] Therefore the MK-801-induced activity and stereotypies in rats may represent an appropriate animal model to test the potential efficacy of antipsychotic drugs.
Male Wistar rats (Iffa Crédo, St Germain/l'Arbresle, France), weight 250-300 g were housed 2 per cage on a 12 h/12 h light dark cycle (lights on at 7.00 a.m.) at a room temperature of 21±2° C. for a minimum of 5 days before testing. All animals had access to commercial food and tap water ad libitum.
On the day of the experiment, rats were treated with either reference drug vehicle, the reference drugs haloperidol or clozapine the test compound vehicle or test compounds. After administration, the rats were returned to their home cages for 15 minutes. […] The remaining rats treated with placebo received a second injection of vehicle. The standard injection volume was 2.0 ml/kg. After 10 minutes in the home cages, rats were transferred to the test box (Plexiglas, 29×12×12 cm), 5 minutes before the assessment for accomodation. The test box was cleaned with 70% ethanol before each assessment. Stereotypies, defined as wall-contacts with the snout, and locomotion, defined as turn-rounds of 180°, were assessed during 5 minute periods.

[22] = target: T7, guinea pig sigma receptor (Cavia porcellus, UniProt Q60492); assay: Guinea pig sigma receptor assay; type: binding; conditions: read-out: IC50 Against Guinea Pig Sigma Receptor
T7 construct: having guinea pig as a receptor source; from tissue; host or cells: guinea pig
Method: (§2) The ability of test compounds to displace sigma ligands in vitro was determined by the methods of de Costa et al. (FEBS Lett. 251:53 (1989)) and De Haven-Hudkine et al. (Eur. J. Pharmacol. 227:372 (1992)) having guinea pig as a receptor source. Whereas, the methods of Gamapatju et al. (J. Pharm.&Exp. 289:251 (1999)) were utilized for human sigma receptors.

[23] = target: human sigma receptor (Homo sapiens, UniProt Q99720); assay: Human sigma receptor assay; type: binding; conditions: read-out: IC50 Against Human Sigma Receptor
Method: as §2

[24] = target: T4, CYP1A2; assay: In Vitro Metabolism (isozymes of P450) CYP1A2
[25] = target: T5, CYP3A4
[26] = target: T6, CYP2D6
[27] = system: Cell Viability
[28] = system: Membrane Integrity
[29] = target: T1, CYP2C19
[30] = system: GSH Level
[31] = system: RedOx State
[32] = in vitro
[33] = system: Caspase-3
[34] = target: T3, CYP2C9
[35] = physchem
[36] = pH 7.5
[37] = system: [3H]haloperidol binding sites in guinea pig brain; conditions: cited from earlier work

T6 sequence (P10635 whole entry): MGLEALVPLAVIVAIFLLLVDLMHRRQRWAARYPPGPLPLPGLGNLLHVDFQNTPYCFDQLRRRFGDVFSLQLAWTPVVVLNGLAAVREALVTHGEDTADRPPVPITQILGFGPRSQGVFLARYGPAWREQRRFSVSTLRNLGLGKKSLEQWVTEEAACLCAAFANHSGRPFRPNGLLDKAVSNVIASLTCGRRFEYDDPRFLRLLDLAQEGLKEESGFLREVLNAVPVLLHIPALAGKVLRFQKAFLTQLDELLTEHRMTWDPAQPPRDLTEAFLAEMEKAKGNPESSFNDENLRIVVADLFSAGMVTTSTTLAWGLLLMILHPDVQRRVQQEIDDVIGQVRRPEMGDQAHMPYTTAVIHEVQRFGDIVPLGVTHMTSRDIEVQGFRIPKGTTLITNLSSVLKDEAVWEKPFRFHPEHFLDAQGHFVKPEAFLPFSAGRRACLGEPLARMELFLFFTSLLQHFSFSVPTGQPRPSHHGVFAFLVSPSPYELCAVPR
T5 sequence (P08684 whole entry): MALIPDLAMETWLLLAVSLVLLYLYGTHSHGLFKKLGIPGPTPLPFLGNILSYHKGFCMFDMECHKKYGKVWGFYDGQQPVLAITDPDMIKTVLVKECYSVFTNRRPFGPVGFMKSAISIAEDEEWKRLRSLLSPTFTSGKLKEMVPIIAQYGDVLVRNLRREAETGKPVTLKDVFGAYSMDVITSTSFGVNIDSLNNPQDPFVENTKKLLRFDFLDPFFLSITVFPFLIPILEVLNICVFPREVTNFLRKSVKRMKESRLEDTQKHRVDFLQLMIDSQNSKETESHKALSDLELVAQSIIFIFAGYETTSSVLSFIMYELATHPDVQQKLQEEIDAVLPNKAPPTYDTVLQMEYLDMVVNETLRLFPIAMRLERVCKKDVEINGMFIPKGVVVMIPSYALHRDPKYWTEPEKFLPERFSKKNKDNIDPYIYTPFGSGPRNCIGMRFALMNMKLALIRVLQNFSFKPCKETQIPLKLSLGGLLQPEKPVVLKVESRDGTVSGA
T1 sequence (P33261 whole entry): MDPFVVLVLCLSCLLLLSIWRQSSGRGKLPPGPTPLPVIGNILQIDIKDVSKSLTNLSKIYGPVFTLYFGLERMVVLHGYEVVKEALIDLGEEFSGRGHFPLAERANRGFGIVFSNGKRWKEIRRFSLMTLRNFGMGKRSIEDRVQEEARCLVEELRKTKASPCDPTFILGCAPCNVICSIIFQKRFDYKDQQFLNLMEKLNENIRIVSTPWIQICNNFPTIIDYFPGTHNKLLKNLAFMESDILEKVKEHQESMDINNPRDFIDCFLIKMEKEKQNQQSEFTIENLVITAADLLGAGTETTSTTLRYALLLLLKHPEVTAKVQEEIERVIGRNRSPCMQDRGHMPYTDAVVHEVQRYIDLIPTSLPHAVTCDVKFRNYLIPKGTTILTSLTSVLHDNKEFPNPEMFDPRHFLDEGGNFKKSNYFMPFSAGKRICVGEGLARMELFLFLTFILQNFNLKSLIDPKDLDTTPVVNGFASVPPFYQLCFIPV
T3 sequence (P11712 whole entry): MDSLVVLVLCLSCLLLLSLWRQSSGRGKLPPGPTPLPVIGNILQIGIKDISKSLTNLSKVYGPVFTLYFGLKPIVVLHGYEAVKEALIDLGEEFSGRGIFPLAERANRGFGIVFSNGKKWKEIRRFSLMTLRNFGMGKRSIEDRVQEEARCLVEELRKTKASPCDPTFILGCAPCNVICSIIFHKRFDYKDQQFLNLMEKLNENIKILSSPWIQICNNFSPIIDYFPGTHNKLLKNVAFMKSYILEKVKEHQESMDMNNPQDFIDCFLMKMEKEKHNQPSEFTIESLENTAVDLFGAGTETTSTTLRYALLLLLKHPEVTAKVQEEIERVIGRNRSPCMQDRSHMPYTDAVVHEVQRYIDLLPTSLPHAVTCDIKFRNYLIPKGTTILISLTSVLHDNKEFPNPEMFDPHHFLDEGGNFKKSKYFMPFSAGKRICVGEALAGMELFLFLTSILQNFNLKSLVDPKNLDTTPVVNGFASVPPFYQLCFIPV
T2 sequence (Q60492 whole entry): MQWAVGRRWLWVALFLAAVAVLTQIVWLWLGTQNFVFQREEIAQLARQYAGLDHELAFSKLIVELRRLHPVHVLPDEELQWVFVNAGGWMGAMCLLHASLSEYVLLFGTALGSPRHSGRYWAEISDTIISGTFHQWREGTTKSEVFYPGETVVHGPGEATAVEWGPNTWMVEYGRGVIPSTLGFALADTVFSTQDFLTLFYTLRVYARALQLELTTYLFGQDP
human sigma receptor, sequence (Q99720 whole entry): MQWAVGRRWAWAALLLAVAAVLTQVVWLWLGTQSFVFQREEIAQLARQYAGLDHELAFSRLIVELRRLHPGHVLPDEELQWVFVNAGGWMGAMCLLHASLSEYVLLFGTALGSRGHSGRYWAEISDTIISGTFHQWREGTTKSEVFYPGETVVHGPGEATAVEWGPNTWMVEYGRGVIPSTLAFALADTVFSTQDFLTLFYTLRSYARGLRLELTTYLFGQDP
T7 sequence (Q60492 whole entry): as the sequence (Q60492 whole entry) above
human serotonin 5-HT2A, sequence (P28223 whole entry): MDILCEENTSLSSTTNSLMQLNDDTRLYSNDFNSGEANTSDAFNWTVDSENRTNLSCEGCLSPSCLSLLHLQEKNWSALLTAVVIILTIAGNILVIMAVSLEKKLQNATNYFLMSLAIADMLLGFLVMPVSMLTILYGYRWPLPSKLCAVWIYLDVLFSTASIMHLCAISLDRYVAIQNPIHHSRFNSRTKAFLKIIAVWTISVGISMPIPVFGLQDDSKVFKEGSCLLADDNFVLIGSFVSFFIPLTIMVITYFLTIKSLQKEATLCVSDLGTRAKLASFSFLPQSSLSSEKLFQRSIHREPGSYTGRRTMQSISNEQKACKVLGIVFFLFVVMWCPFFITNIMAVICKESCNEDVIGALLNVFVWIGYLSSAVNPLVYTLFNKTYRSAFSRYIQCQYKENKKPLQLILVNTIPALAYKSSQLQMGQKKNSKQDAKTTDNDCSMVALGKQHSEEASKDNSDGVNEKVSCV
sigma-1 receptors, sequence (Q60492 whole entry): as the sequence (Q60492 whole entry) above

| Compound | CYP2C19 [1] [% inhibition] | Papp [2] [×10⁻⁶ cm/s] | Log D7.5 [3] | IC50 [4] [nM] | % Inhibition [4] [%] | CYP2C9 [5] [% inhibition] | Metabolic Stability (% parent remaining) [6] [% parent remaining] | Membrane Integrity [7] [% inhibition] | RedOx State [8] [% inhibition] | DNA Synthesis [9] [% inhibition] | Cell Viability [11] [% inhibition] | GSH Level (% Control) [12] [% Control] | CYP3A4 [13] [% inhibition] | fraction unbound [14] | solubility [15] [µM] | CYP2D6 [16] [% inhibition] | Caspase-3 Induction % Induction [17] [% Induction] | Protein Synthesis [18] [% inhibition] | MK-801-induced locomotion [21] | CYP1A2 [24] [% inhibition] | further results |
| --- | --- | --- | --- | --- | --- | --- | --- | --- | --- | --- | --- | --- | --- | --- | --- | --- | --- | --- | --- | --- | --- |
| O=C1CCC2(CCN(Cc3nc4ccccc4[nH]3)CC2)Nc2ccccc21 [Compound 21, 1′-(2-methylbenzimidazole)-3,4-dih drospiro[5H-1-benzazepine-2(1H)-4′-piperidin]-5-one] | 20 | 1.95 | 1.22 | < 1000 | >50 | 19 | 17 | <10 | 33 | 29 | <10 | <10 | 69 | 0.01 | 210 (≈ 75.6 µg/mL) | 100 | <10 | 14 | – | – | CYP1A2 [10]: 20 % inhibition |
| O=C1CCC2(CCN(CCc3ccccc3)CC2)Nc2ccccc21 [Compound 19] | – | – | – | – | >50 | – | – | – | – | – | – | – | – | – | – | – | – | – | – | – | IC50 [19]: < 1000 nM; IC50 [20]: < 100 nM |
| O[C@@H]1CCC2(CCN(Cc3ccc(F)cc3)CC2)Nc2ccccc21 [Compound 50] | 19 | 25.8 | 1.62 | – | – | 19 | 87 | <10 | 12 | <10 | <10 | <10 | 19 | 0.38 | 205 (≈ 69.8 µg/mL) | 31 | <10 | <10 | caused a reduction | 14 | MK-801-induced stereotypies [21]: caused a reduction; IC50 [22]: < 100 nM; IC50 [23]: < 1000 nM |
| O=C1CCC2(CCNCC2)Nc2ccccc21 [Compound 11, 3,4-Dihydrospiro[5H-1-benzazepine-2(1H), 4′-piperidin]-5-one] | – | 4.7 | – | > 1000 | <50 | – | – | – | – | <10 | – | – | – | – | – | – | – | 42 | – | <10 | CYP3A4 [25]: <10 % inhibition; CYP2D6 [26]: 15 % inhibition; Cell Viability [27]: <10 % inhibition; Membrane Integrity [28]: <10 % inhibition; CYP2C19 [29]: <10 % inhibition; GSH Level (% Control) [30]: <10 % Control; RedOx State [31]: <10 % inhibition; fraction unbound [32]: 0.3; Caspase-3 Induction % Induction [33]: <10 % Induction; CYP2C9 [34]: <10 % inhibition; solubility [35]: 202 µM (≈ 46.5 µg/mL); Log D7.5 [36]: 0.48 |
| CC(C)=CCN1CCC2(C)c3cc(O)ccc3CC1C2C (single isomer, unassigned; (+)) [(+)-pentazocine] | – | – | – | – | – | – | – | – | – | – | – | – | – | – | – | – | – | – | – | – | potency in displacing [3H]haloperidol relative to spiperone [37]: about 10 times |
| O[C@H]1CCC2(CCN(Cc3ccc(F)cc3)CC2)Nc2ccccc21 [Compound 49] | 19 | 27.5 | 1.59 | – | – | 18 | 69 | <10 | 15 | <10 | <10 | <10 | 17 | 0.37 | 181 (≈ 61.6 µg/mL) | 44 | <10 | <10 | did not reduce | 13 | MK-801-induced stereotypies [21]: did not reduce; IC50 [22]: < 100 nM; IC50 [23]: < 100 nM |
